Like-named read-outs stand apart in the source and are kept apart here.
Assays:
[1] = system: isolated Sprague-Dawley rats; test: Resident Intruder test, rat isolation rearing model; assay type: in vivo; conditions: 0.16 or 0.48 mg/kg/day
Method: Sprague Dawley Rats: Right after the weaning (post natal day 21-23), 72 Sprague-Dawley male rats (Charles River, bred in the UAB Animal facility) were divided in two groups: Control (N = 18), maintained 3-4 animals per cage; Isolated (N = 54), 1 animal per cage ([…] 1291H Eurostandard type III with ECOPURE CHIPS 6 bedding material, Harlan). Animals were maintained at 21 ± 2 °C controlled temperature in a 12 hr light / dark cycle (lights on at 8:00 am) with ad libitum access to food (2014 TEKLAD, Harlan) and water. […] Control animals were treated with vehicle. The administration route was drinking water and the vehicle 1.8% 2-Hydroxypropyl-b-cyclodextrin. Drug concentration was adjusted weekly by body weight and water consumption. During the last week of treatment, all animals were tested in the EPM and, on a different day, in the RI test (N = 12 / group). After depth anesthesia with Isoflurane, animals were perfused with saline solution followed by paraformaldehyde in order to obtain brain samples for histological analysis.
The protocol was modified from previously described. Briefly, the test subject (resident) was maintained in its home cage without bedding changes for one week. […] In mice the session was video-recorded for 20 min and social interaction (social interaction and rearings) and aggressive behavior (lateral threats, clinch attacks, keep-down behavior) were analyzed. […] In rats the session was video recorded for 15 min and social interaction (active and passive social interaction, number of evitations and time without social interaction) were analyzed. […] In addition, the time spent without social interaction was also measured.
Resident Intruder (RI): Mice were video-recorded for 20 min and social interaction and aggressive behavior were analyzed. Rats were video recorded for 15 min and social interaction (active and passive social interaction, number of evitations and time without social interaction) were analyzed.

MAO- A (h) = target: T1, MAO- A (h) (Homo sapiens, UniProt P21397); test: CEREP Diversity Panel; assay type: biochemical
T1 construct: purchased CEREP (Eurofins Cerep)
Method: (§1) […]. MAO-A inhibition at 10 μM was 37%, in line with internal data.

[2] = target: T2, phosphatase 1B (h) (PTP1B) (Homo sapiens, UniProt P18031); test: CEREP Diversity Panel; assay type: biochemical
T2 construct: purchased CEREP (Eurofins Cerep)
Method: as §1

PKCa (h) = target: T3, PKCa (h) (Homo sapiens, UniProt P17252); test: CEREP Diversity Panel; assay type: biochemical
T3 construct: purchased CEREP (Eurofins Cerep)
Method: as §1

5-lipoxygenase (h) = target: T4, 5-lipoxygenase (h) (Homo sapiens, UniProt P09917); test: CEREP Diversity Panel; assay type: biochemical
T4 construct: purchased CEREP (Eurofins Cerep)
Method: as §1

PDE3A (h) = target: T5, PDE3A (h) (Homo sapiens, UniProt Q14432); test: CEREP Diversity Panel; assay type: biochemical
T5 construct: purchased CEREP (Eurofins Cerep)
Method: as §1

CENP-E (h) = target: T6, CENP-E (h) (Homo sapiens, UniProt Q02224); test: CEREP Diversity Panel; assay type: biochemical
T6 construct: purchased CEREP (Eurofins Cerep)
Method: as §1

acetylcholinesterase (h) = target: T7, acetylcholinesterase (h) (Homo sapiens, UniProt P22303); test: CEREP Diversity Panel; assay type: biochemical
T7 construct: purchased CEREP (Eurofins Cerep)
Method: as §1

[3] = target: T8, PNMT (phenylethanolamine N-methyl transferase) (Bos taurus, UniProt P10938); test: CEREP Diversity Panel; assay type: biochemical
T8 construct: purchased CEREP (Eurofins Cerep)
Method: as §1

tyrosine hydroxylase = target: T9, tyrosine hydroxylase (Rattus norvegicus, UniProt P04177); test: CEREP Diversity Panel; assay type: biochemical
T9 construct: purchased CEREP (Eurofins Cerep)
Method: as §1

GABA transaminase = target: T10, GABA transaminase (Rattus norvegicus, UniProt P50554); test: CEREP Diversity Panel; assay type: biochemical
T10 construct: purchased CEREP (Eurofins Cerep)
Method: as §1

PDE2A1 (h) = PDE2A1 (h) (Homo sapiens, UniProt O00408); test: CEREP Diversity Panel; assay type: biochemical
Method: as §1

PDE1B (h) = target: T11, PDE1B (h) (Homo sapiens, UniProt Q01064); test: CEREP Diversity Panel; assay type: biochemical
T11 construct: purchased CEREP (Eurofins Cerep)
Method: as §1

Eg5 (h) = target: T12, Eg5 (h) (Homo sapiens, UniProt P52732); test: CEREP Diversity Panel; assay type: biochemical
T12 construct: purchased CEREP (Eurofins Cerep)
Method: as §1

phosphatase CDC25A (h) = target: T13, phosphatase CDC25A (h) (Homo sapiens, UniProt P30304); test: CEREP Diversity Panel; assay type: biochemical
T13 construct: purchased CEREP (Eurofins Cerep)
Method: as §1

T1 sequence (P21397 whole entry): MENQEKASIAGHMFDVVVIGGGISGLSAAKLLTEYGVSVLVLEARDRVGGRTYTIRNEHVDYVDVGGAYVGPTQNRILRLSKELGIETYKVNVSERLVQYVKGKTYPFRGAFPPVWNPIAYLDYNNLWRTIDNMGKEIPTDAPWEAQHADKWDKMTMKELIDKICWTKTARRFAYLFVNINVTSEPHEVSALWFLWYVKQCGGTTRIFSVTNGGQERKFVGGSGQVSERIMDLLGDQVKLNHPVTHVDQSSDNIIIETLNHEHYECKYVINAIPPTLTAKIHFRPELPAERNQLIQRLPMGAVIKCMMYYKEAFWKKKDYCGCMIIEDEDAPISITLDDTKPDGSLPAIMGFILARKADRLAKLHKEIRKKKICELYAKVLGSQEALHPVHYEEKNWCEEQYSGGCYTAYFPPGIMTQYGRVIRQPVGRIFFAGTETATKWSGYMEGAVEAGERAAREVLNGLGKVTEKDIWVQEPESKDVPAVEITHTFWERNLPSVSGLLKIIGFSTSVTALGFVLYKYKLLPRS
T10 sequence (P50554 28-500): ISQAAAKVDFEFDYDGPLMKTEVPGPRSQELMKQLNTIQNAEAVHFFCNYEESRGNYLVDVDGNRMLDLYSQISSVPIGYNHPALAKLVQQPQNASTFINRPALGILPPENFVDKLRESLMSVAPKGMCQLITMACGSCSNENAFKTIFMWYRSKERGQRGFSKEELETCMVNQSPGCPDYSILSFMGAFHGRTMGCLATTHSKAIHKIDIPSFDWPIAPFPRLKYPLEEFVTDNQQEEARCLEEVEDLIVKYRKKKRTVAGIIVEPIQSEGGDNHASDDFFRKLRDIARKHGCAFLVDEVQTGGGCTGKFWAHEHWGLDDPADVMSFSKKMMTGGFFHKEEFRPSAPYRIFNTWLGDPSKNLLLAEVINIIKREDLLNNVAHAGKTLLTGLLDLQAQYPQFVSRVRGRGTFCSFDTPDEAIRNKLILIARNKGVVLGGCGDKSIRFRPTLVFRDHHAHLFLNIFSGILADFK
T11 sequence (Q01064 whole entry): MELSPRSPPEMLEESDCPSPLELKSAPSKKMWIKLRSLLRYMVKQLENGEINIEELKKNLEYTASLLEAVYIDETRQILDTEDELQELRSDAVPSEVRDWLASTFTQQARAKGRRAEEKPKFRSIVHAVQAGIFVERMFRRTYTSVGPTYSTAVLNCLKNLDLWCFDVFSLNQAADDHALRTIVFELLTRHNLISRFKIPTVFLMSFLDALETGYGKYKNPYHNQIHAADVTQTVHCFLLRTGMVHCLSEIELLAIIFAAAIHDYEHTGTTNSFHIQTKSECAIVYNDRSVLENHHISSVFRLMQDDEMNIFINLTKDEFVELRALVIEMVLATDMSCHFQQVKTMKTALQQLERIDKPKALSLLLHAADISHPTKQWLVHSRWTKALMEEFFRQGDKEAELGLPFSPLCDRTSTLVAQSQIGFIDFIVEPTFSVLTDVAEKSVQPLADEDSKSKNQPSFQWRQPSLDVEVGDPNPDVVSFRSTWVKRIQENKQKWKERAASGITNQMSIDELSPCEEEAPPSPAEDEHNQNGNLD
T13 sequence (P30304 whole entry): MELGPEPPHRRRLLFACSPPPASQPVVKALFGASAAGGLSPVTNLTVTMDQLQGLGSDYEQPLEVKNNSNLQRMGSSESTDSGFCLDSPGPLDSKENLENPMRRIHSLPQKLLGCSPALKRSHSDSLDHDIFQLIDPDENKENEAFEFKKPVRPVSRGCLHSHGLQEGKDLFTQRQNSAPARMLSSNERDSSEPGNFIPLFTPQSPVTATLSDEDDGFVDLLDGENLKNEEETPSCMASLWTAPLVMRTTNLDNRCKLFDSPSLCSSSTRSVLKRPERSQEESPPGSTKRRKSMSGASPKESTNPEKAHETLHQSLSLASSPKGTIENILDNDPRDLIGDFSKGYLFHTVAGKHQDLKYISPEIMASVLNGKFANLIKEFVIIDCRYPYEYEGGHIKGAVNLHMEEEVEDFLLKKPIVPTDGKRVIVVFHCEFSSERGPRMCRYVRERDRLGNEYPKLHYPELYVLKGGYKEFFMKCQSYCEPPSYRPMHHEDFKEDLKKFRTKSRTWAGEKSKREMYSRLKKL
T4 sequence (P09917 whole entry): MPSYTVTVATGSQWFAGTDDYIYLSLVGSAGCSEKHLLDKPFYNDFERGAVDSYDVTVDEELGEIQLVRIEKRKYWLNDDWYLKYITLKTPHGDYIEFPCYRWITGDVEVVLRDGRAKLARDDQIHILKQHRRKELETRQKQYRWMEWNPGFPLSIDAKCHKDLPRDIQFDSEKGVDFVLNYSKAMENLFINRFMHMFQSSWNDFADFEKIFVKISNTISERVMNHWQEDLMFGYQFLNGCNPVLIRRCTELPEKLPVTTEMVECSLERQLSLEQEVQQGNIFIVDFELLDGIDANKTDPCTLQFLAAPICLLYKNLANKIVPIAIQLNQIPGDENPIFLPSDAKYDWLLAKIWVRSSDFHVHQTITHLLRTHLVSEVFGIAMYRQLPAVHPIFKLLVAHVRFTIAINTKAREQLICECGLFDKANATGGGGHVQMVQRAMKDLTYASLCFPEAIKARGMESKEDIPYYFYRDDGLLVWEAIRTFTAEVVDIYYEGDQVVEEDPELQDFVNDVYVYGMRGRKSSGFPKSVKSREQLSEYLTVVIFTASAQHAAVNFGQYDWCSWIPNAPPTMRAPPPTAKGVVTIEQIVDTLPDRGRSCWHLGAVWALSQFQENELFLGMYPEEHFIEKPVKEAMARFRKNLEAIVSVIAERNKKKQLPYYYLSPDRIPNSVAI
T7 sequence (P22303 32-614): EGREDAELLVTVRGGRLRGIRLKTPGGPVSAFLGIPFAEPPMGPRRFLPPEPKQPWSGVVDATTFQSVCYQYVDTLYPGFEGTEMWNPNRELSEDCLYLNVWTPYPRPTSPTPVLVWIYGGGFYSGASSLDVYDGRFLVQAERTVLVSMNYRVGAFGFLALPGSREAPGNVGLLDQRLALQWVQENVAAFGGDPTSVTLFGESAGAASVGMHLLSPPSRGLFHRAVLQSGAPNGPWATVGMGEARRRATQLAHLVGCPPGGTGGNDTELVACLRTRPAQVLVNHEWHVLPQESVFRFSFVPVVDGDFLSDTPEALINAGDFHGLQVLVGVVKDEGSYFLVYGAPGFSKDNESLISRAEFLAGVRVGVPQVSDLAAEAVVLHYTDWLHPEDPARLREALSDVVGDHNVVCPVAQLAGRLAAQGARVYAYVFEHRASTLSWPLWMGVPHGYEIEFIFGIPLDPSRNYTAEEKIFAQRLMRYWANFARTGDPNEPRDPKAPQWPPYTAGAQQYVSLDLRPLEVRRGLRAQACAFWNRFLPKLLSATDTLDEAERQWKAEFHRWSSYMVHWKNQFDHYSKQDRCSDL
PDE2A1 (h), sequence (O00408 49-941 limits assumed): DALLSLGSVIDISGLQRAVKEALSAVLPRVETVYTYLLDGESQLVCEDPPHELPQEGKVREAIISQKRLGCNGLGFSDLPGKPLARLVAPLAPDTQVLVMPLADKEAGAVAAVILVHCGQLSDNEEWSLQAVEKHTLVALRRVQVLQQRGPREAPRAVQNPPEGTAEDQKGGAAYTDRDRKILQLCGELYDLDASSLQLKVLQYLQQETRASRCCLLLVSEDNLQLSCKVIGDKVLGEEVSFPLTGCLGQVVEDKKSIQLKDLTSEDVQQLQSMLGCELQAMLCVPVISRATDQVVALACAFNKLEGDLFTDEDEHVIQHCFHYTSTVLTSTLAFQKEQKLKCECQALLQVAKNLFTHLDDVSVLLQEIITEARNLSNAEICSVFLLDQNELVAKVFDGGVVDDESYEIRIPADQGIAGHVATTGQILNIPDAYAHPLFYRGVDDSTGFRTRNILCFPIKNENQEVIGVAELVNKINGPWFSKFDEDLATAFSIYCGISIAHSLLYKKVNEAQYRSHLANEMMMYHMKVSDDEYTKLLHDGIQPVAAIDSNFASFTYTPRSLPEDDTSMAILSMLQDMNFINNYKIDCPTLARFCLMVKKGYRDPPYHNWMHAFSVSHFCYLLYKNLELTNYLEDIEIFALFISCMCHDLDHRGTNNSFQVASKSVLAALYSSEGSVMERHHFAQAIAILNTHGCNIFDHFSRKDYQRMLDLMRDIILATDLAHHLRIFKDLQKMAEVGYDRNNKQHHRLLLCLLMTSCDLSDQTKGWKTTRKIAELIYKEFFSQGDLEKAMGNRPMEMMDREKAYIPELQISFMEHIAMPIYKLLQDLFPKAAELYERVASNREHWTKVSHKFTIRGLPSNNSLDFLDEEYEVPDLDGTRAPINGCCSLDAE

For `Nc1nnc(CN[C@@H]2C[C@H]2c2ccc(OCc3ccccc3)cc2)o1` [ORY-2001, vafidemstat], the “active and passive social interaction” value [1] was “had no effect on these parameters”, the number of evitations [1] was “restored to normality” and the “time without social interaction” value [1] was “dose dependently reduced”. For the same molecule, the inhibition at 10 µM (MAO- A (h); 10 μM, read-out: MAO-A inhibition) was 37%, the inhibition at 10 µM (MAO- A (h); at 10 µM, read-out: % inhibition) was 37% and the inhibition at 10 µM [2] was 2%. For the same molecule, the inhibition at 10 µM (PKCa (h)) was 4%, the inhibition at 10 µM (5-lipoxygenase (h)) was 3% and the inhibition at 10 µM (PDE3A (h)) was 1%. It also gave an inhibition at 10 µM (CENP-E (h)) of 3%, an inhibition at 10 µM (acetylcholinesterase (h)) of -4% and an inhibition at 10 µM [3] of 1%. It also gave an inhibition at 10 µM (tyrosine hydroxylase) of -12%, an inhibition at 10 µM (GABA transaminase) of 8% and an inhibition at 10 µM (PDE2A1 (h)) of -2%. For the same molecule, the inhibition at 10 µM (PDE1B (h)) was 7%, the inhibition at 10 µM (Eg5 (h)) was -3% and the inhibition at 10 µM (phosphatase CDC25A (h)) was 5%.
